Test results: PMC5762315, “Inhibition of polo-like kinase 4 (PLK4): a new therapeutic option for rhabdoid tumors and pediatric medulloblastoma” (Oncotarget, 2017)
Several values for one entry are separate records, joined by “and”; a condition that tells them apart may be missing. Equal entries are not always repeated.

Key:
Test in all cases: biochemical
Format in all cases: biochemical
[1] = target: various kinases (Homo sapiens, UniProt O14920); conditions: IKBKB (IKK beta)
[2] = target: various kinases (Homo sapiens, UniProt O60674, V617F); conditions: JAK2 JH1 JH2 V617F
[3] = target: various kinases (Homo sapiens, UniProt O95819); conditions: MAP4K4 (HGK)
[4] = target: various kinases (Homo sapiens, UniProt P00519, T315I); conditions: ABL1 T315I
[5] = target: various kinases (Homo sapiens, UniProt P00533); conditions: EGFR (ErbB1)
[6] = target: various kinases (Homo sapiens, UniProt P06239); conditions: LCK
[7] = target: various kinases (Homo sapiens, UniProt P10721, V559D); conditions: KIT V559D
[8] = target: various kinases (Homo sapiens, UniProt P22607); conditions: FGFR3
[9] = target: various kinases (Homo sapiens, UniProt P23458); conditions: JAK1
[10] = target: various kinases (Homo sapiens, UniProt P24723); conditions: kinase PRKCH (PKC eta); ZLYTE
[11] = target: various kinases (Homo sapiens, UniProt P27361); conditions: MAPK3 (ERK1)
[12] = target: various kinases (Homo sapiens, UniProt P34947); conditions: GRK5
[13] = target: various kinases (Homo sapiens, UniProt P35916); conditions: FLT4 (VEGFR3)
[14] = target: T1, various kinases (Homo sapiens, UniProt P42681); conditions: kinase TXK; ZLYTE
T1 sequence (P42681 1-527): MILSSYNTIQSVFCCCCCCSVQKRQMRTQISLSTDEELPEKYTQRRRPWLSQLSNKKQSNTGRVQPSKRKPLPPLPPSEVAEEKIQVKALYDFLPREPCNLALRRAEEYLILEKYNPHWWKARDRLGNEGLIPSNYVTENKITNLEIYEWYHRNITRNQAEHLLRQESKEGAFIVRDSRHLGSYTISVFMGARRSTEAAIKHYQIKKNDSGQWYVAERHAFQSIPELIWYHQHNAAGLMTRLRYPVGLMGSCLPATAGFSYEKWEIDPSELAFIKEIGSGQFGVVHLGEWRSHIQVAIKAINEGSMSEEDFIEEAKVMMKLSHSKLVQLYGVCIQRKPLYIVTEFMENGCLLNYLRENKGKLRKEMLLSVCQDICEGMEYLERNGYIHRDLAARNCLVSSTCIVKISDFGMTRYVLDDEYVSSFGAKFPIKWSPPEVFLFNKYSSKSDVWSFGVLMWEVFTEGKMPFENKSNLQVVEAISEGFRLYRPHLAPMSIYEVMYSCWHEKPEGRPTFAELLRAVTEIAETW

[15] = target: various kinases (Homo sapiens, UniProt P42685); conditions: FRK (PTK5)
[16] = target: various kinases (Homo sapiens, UniProt P49761); conditions: CLK3
[17] = target: various kinases (Homo sapiens, UniProt P54756); conditions: EPHA5
[18] = target: various kinases (Homo sapiens, UniProt P54762); conditions: EPHB1
[19] = target: T2, various kinases (Homo sapiens, UniProt Q05513); conditions: kinase PRKCZ (PKC zeta); ZLYTE
T2 sequence (Q05513 1-592): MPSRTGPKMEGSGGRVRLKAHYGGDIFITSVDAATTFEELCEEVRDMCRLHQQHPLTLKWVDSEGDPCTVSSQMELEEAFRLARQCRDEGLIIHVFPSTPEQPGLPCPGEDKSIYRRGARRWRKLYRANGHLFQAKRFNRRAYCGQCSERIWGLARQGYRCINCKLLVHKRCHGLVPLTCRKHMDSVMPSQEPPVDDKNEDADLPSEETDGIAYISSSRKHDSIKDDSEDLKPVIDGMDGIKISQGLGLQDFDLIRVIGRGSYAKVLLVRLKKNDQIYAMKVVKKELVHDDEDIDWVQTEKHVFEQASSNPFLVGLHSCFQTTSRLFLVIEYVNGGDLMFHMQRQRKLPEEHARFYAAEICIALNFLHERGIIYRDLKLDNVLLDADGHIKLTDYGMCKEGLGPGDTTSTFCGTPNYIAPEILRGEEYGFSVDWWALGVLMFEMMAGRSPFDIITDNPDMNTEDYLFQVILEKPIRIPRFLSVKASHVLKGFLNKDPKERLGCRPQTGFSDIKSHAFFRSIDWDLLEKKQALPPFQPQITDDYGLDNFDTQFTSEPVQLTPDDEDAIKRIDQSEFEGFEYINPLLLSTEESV

[20] = target: various kinases (Homo sapiens, UniProt Q07002); conditions: CDK18/cyclin Y
[21] = target: various kinases (Homo sapiens, UniProt Q13627); conditions: DYRK1A
[22] = target: various kinases (Homo sapiens, UniProt Q16566); conditions: CAMK4 (CaMKIV)
[23] = target: various kinases (Homo sapiens, UniProt Q6VAB6); conditions: KSR2
[24] = target: various kinases (Homo sapiens, UniProt Q7KZI7); conditions: MARK2
[25] = target: various kinases (Homo sapiens, UniProt Q9P0L2); conditions: MARK1 (MARK)
Throughout, for % Inhibition Average: test concentration or dose not given here.
Throughout, for % Inhibition Duplicate #1: test concentration or dose not given here.
Throughout, for % Inhibition Duplicate #2: test concentration or dose not given here.

various kinases (Homo sapiens, UniProt P24723), sequence (P24723 whole entry): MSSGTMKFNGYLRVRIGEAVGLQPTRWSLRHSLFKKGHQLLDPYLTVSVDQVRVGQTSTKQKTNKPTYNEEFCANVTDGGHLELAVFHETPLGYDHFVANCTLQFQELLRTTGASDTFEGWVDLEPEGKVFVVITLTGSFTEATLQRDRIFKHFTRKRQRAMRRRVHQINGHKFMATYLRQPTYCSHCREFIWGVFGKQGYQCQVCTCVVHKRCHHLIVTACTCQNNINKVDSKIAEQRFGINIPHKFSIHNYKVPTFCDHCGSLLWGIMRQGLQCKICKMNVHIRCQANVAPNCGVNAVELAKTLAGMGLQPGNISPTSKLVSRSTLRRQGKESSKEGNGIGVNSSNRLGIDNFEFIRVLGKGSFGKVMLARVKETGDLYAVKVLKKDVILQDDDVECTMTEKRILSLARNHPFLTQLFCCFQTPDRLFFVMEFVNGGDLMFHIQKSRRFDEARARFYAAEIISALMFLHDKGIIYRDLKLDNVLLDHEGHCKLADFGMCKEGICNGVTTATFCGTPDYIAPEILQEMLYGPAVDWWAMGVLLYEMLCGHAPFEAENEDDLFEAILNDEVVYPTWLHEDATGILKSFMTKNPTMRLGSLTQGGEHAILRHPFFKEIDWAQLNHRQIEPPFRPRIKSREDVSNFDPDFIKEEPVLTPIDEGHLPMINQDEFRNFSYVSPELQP
various kinases (Homo sapiens, UniProt O95819), sequence (O95819 whole entry): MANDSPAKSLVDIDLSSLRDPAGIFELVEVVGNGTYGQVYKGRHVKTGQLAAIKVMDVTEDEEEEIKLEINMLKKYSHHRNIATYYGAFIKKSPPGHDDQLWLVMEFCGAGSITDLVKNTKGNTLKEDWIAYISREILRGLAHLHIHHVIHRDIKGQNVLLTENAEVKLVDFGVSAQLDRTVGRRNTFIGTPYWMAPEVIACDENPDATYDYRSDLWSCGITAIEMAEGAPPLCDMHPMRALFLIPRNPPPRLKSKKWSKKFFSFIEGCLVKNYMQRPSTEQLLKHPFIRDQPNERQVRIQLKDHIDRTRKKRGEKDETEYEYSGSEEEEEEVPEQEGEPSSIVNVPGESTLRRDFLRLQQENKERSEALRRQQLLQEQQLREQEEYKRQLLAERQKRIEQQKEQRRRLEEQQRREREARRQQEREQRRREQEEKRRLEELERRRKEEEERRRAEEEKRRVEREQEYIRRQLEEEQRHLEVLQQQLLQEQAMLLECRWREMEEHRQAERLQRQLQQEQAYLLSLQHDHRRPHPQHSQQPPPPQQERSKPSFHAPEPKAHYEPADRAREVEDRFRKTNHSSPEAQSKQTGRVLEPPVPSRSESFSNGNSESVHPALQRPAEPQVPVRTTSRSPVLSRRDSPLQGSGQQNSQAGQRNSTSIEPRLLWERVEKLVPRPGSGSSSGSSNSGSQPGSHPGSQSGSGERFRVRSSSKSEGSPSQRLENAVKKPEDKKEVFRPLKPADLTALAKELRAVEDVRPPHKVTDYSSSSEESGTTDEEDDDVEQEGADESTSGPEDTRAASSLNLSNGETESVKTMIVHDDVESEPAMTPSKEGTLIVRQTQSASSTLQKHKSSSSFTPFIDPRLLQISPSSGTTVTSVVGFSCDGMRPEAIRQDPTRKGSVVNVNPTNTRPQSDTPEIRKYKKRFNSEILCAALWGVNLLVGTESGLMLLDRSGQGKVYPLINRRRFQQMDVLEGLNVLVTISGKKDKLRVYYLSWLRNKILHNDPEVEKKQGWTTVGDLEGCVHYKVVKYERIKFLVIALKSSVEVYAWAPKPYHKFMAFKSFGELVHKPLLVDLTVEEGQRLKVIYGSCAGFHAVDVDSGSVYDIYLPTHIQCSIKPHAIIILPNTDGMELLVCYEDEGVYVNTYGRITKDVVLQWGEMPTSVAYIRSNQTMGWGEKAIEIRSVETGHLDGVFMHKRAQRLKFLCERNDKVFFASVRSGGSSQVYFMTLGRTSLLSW
various kinases (Homo sapiens, UniProt P10721, V559D), sequence (P10721 26-976 V559D): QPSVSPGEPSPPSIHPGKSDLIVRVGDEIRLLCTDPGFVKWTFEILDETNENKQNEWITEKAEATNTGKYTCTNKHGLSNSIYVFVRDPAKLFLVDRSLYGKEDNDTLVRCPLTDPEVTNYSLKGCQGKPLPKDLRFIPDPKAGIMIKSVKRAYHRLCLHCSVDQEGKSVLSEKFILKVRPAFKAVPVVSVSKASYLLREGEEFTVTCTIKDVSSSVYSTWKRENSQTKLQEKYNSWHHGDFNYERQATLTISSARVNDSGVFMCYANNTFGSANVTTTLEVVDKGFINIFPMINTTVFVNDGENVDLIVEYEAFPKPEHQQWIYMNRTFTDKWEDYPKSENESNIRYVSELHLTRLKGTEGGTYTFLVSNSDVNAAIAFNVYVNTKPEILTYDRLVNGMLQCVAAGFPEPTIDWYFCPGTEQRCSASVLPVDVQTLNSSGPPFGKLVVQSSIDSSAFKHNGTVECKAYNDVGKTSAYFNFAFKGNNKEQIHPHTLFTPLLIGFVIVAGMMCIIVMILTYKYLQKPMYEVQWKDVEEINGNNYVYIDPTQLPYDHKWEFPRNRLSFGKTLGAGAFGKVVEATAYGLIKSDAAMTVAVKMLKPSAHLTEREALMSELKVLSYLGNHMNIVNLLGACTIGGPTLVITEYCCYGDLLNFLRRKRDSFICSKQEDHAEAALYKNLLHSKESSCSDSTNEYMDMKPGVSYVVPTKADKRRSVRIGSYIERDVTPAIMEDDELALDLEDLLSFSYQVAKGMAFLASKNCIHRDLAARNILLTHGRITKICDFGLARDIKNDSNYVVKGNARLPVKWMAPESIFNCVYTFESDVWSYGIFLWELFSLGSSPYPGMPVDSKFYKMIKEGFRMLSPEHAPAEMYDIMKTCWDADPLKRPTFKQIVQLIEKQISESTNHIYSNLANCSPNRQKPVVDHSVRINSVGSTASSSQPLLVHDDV
various kinases (Homo sapiens, UniProt P54756), sequence (P54756 25-1037): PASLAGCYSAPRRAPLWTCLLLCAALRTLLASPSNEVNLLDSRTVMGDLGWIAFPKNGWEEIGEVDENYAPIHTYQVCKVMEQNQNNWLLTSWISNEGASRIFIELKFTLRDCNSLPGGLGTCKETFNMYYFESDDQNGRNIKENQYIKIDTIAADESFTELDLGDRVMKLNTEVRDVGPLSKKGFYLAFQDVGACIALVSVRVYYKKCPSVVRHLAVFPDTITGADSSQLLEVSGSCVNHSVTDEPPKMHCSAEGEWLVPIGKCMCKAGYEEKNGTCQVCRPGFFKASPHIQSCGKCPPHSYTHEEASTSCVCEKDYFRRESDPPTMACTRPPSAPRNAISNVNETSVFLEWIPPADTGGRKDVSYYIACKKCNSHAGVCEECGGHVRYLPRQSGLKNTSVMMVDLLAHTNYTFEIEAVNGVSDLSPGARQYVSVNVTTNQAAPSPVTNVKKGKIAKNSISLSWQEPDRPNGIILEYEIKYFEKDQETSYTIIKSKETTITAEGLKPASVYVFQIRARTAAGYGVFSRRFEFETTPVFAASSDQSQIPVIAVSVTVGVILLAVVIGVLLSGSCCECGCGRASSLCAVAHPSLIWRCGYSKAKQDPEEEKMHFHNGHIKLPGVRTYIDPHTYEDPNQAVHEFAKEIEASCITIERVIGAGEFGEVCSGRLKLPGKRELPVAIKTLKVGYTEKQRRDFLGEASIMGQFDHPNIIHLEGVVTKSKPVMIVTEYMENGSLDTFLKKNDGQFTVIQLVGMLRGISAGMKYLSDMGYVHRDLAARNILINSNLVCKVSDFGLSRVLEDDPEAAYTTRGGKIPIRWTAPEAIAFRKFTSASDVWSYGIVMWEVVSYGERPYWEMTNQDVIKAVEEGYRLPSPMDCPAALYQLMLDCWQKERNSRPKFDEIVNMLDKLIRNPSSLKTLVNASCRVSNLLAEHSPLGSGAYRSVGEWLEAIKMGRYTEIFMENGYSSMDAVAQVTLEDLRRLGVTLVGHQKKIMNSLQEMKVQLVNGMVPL
various kinases (Homo sapiens, UniProt Q6VAB6), sequence (Q6VAB6 whole entry): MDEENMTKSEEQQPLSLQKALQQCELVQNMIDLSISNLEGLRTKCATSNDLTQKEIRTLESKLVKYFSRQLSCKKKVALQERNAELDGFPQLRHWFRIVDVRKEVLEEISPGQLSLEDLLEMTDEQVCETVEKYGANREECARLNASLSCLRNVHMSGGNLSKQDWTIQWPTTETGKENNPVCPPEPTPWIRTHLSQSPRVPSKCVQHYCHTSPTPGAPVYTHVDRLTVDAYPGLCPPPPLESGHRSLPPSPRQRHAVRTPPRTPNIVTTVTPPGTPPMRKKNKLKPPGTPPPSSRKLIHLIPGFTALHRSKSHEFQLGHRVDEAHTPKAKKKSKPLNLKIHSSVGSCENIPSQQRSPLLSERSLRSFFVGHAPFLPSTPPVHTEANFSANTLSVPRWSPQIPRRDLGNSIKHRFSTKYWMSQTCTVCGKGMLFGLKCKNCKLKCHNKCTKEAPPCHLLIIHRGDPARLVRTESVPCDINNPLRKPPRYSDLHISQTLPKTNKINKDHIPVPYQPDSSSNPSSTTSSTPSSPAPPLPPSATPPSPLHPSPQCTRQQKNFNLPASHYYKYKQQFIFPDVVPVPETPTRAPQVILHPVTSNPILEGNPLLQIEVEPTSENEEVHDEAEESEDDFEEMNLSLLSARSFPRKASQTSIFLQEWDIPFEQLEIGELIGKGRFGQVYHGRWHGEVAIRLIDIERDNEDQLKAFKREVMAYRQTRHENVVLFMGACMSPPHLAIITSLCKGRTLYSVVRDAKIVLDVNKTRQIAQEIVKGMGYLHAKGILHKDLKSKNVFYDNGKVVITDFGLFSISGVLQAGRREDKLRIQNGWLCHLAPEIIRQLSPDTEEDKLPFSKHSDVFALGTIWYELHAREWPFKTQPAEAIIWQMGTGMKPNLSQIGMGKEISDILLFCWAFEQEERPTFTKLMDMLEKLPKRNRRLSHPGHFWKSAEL

With `COc1ccc2c(c1)[C@]1(C[C@H]1c1ccc3c(/C=C/c4ccc(CN5C[C@@H](C)O[C@@H](C)C5)cc4)n[nH]c3c1)C(=O)N2` [CFI-400945] the “% Inhibition” value [1] was 5% and 4%, the “% Inhibition” value [2] was 8% and 9% and the “% Inhibition” value [3] was 9% and 13%. The “% Inhibition” value [4] was 83% and 78%, the IC50 [4] was 27.2 nM and the “% Inhibition” value [5] was 1% and 7%. The “% Inhibition” value [6] was 39% and 40%, the “% Inhibition” value [7] was 9% and 10% and the “% Inhibition” value [8] was 11% and 14%. The “% Inhibition” value [9] was 1% and 0%, the “% Inhibition Average” value [10] was -3% and the “% Inhibition Duplicate #1” value [10] was -10%. The “% Inhibition Duplicate #2” value [10] was 3%, the “% Inhibition” value [11] was 4% and the “% Inhibition” value [12] was 5% and 3%. The “% Inhibition” value [13] was 6% and 8%, the “% Inhibition Average” value [14] was 7% and the “% Inhibition Duplicate #1” value [14] was 6%. The “% Inhibition Duplicate #2” value [14] was 8%, the “% Inhibition” value [15] was 8% and 7% and the “% Inhibition” value [16] was 2% and 0%. The “% Inhibition” value [17] was 8% and 5%, the “% Inhibition” value [18] was 11% and 16% and the “% Inhibition Average” value [19] was -11%. The “% Inhibition Duplicate #1” value [19] was -22%, the “% Inhibition Duplicate #2” value [19] was 0% and the “% Inhibition” value [20] was 5% and 4%. The “% Inhibition” value [21] was 2% and 4%, the “% Inhibition” value [22] was 7% and -3% and the “% Inhibition” value [23] was 3% and 4%. For the same molecule, the “% Inhibition” value [24] was 7% and 2% and the “% Inhibition” value [25] was 25% and 24%.
